The results in this text go back to a melting point compilation (Tetko et al.; mined from patent text by program, amines drawn as free bases though some values may be those of a salt).

Molecules are shown by their SMILES.

`COc1cc2oc(=O)c(C)c(C)c2cc1OCCN1CCN(c2cccc3[nH]ccc23)CC1`: the melting point (in general, the temperature, or range, at which the solid turns liquid) lay in the range of 201 to 202 °C.
For the molecule `N#Cc1cccc(CN2C(=O)c3ccccc3C2=O)n1`, the melting point was 205 °C.
The molecule `CC1CC(=NNc2ccccc2)c2ncc(C(=O)O)c(=O)n2C1` (configuration not stated) displayed a melting point of 255 to 256 °C.
Take `CC(=O)Oc1ccccc1-c1ccc(Cl)nn1`: the melting point is 131 to 134 °C.
To `CC(C)(C)OC(=O)N1CCC(Oc2cccc3[nH]ncc23)C1` (configuration not stated) belongs 196 to 198 °C; to `O=C(Cl)c1cc2ccccc2[nH]1`, 120 °C.
To `Cc1ccc(NC(=O)NCC(=O)N(CC(=O)OC(C)(C)C)c2ccccc2C(=O)c2ccccc2)cc1` belongs 182 to 183 °C; to `O=C(c1cc(=O)c2cc(O)ccc2[nH]1)N1CCC(O)(Cc2ccccc2)CC1`, 178 °C.
As for `O=C(NCCN1CCC(n2c(=O)[nH]c3ccccc32)CC1)c1ccco1`, the melting point is 229 °C.
The value for `CCCc1cccc(C2(c3ccc(OC(F)(F)F)cc3)N=C(N)N3CCCN=C32)c1` (configuration not stated) was 75 to 79 °C; that for `COc1ccc(-c2nc(SC)sc2-c2ccc(OC)cc2)cc1` was 102 to 104 °C; that for `CC1(C)CCC(C)(C)c2cc(-c3cc(-c4ccc(C(=O)OCc5ccccc5)cc4)ccc3O)ccc21` was 90 to 91 °C.
With `COc1ccccc1-c1ccc(C(=O)N2Cc3ccc(C(=O)N(C)CC(O)CO)n3Cc3ccccc32)cc1C` (configuration not stated), the melting point was in the range of 174 to 184 °C.
To `CC(N)C(=O)NC(CCC(=O)NC(CC=CCC(=O)O)C(=O)O)C(=O)O` (configuration not stated) belongs 70 °C; to `COC(=O)c1[nH]c2ncccc2c1-c1ccc(N)cc1`, 236 °C; to `CCCCCC=C1SC(=S)N(CC(=O)O)C1=O`, 136 to 140 °C.
Molecule `Cc1ccc(Oc2ccc(C#CC(C)N(O)C(N)=O)o2)cn1` (configuration not stated) displayed a melting point of 149 °C.
For `O=C1c2cc(O)ccc2OCC1Cc1ccccn1` (configuration not stated), the melting point was in the range of 150 to 151 °C.
Molecule `O=C(O)N1CCN(C(=O)c2cccs2)CC1` yielded a melting point of 76 °C.
As to `O=C(NCCCO)c1cc(O)c(O)c([N+](=O)[O-])c1`, the melting point is 160 to 163 °C.
The value for `COc1ccc(C(CCN(C)C)c2ncc[nH]2)cc1` (configuration not stated) was 131 to 133 °C; that for `OC(CNC1CCc2ccccc2C1)COc1cccc2c1CCCC2` (configuration not stated) was 90 to 93 °C; that for `Cc1ccc(-c2c3c(cc4ccc(O)cc24)-c2ccc(O)cc2CO3)cc1` was 238 to 240 °C.
To `O=C(Nc1nccs1)c1nc(-c2ccc(N3CCOCC3)cc2)[nH]c1-c1ccc(Cl)cc1` belongs above 260 °C; to `CC(C)(C=C=CC(=O)O)c1ccc(Cl)cc1`, 64 to 67 °C; to `c1nc(Nc2ccc3[nH]ccc3c2)c2sc(-c3ccc(CNCCN4CCNCC4)cc3)cc2n1`, 178 to 191 °C.
`CCCCCCCCCCCCCCCC(Br)CC(=O)O` (configuration not stated) showed a melting point of 47 to 51 °C.
The molecule `C=C(c1ccc(NC(=O)OC(C)(C)C)c(C)c1)C(F)(F)C(F)(F)C(F)(F)F` had a melting point of 50 to 53.5 °C.
The value for `CCOC(=O)Cc1ccc(NC2=NN(c3ccc(C)cc3)CC2)cc1` was 145 to 146 °C; that for `CC(=O)Nc1nc(CCc2ccc(CON3C(=O)c4ccccc4C3=O)cc2)cs1` was 225 to 226 °C; that for `C[C@H](N)Cn1ncc2ccc3oc(C(=O)NCCCN4CCCC4=O)cc3c21` was 82 °C.
To `CC(C)(C)c1cc(CCCO)cc(C(C)(C)C)c1O` belongs 67.5 to 69 °C; to `O=Cc1cn(Cc2ccc(OCc3ccccc3)cc2)nc1-c1ccc(F)cc1`, 97 to 98 °C.
`O=C(O)Cn1c(=O)c(=O)[nH]c2ccc3ccc(-n4ccc(CNC(=O)Nc5ccccc5)c4)cc3c21` returned a melting point above 230 °C.
To `CCc1cc(Cl)c(S(C)(=O)=O)cc1C(=O)O` belongs 180 to 183 °C.
In turn, `CC(C)(C)OC(=O)N[C@H](CC(=O)OCc1ccccc1)C(=O)N[C@H](COC(=O)OCc1ccccc1)c1ccccc1` gave a melting point of 105 to 106 °C.
In turn, `COCC(=O)Nc1cc(C(=O)OC)c(O)c2ncc(Cc3ccc(F)cc3)cc12` had a melting point of 154 to 155 °C.
For `Cc1cc(SC2=C(O)CC(CCc3ccoc3)(C(C)C)OC2=O)c(C(C)(C)C)cc1CO` (configuration not stated), the melting point lay within 62 to 70 °C.
In the case of `COc1ccc(C(=O)Nc2ccccc2)cc1NS(=O)(=O)c1ccc(F)cc1F`, the melting point was 198 to 200 °C.
The value for `CCOC(=O)c1cc2ccc(C)cc2o1` was 35 to 42 °C.
The molecule `COC(=O)c1ccccc1-c1ncccc1N` yielded a melting point of 188 to 189 °C.
`CC(C)(C)OC(=O)NOCC(=O)NNC(=O)c1cc(S(=O)(=O)O)cc(OCc2ccccc2)c1OCc1ccccc1` gave a melting point of 103 to 105 °C.
As for `Cc1onc(NS(=O)(=O)c2ccccc2)c1Br`, the melting point lay in the range of 128 to 130 °C.
The value for `Cc1ccc(N)cc1Nc1ncc(-c2ccncc2)o1` was 158 °C.
Turning to `O=C(Cc1ccncc1)c1ccc(F)cc1`, the melting point lay in the range of 90 to 91 °C.
`COc1ccc(Cn2cc[nH]c2=S)cc1F` showed a melting point of 156 to 157 °C.
With `CN(C)C=Nc1c(Cl)cc(N=Cc2cccc(C(F)(F)F)c2)cc1Cl`, the melting point lay in the range of 62 to 64 °C.
With `CC(C)CCCC(C)C1CCC2C3CC=C4CC(Oc5ccc(N)cc5N)CCC4(C)C3CCC12C` (configuration not stated), the melting point lay within 159 to 163 °C.
On to `CC(C)(C)c1nc(-c2nnc(NC(=N)N)s2)nc(C(C)(C)C)c1O`, for which the melting point was found to be 277 °C.
Regarding `OC(c1cscn1)(c1cscn1)C(F)(F)F`, the melting point lay in the range of 87 to 89 °C.
With `Cc1noc(NS(=O)(=O)c2ccccc2-c2ccc(-c3ncco3)cc2CN(C)C(=O)c2ccc(F)c(F)c2)c1C`, the melting point was 122 to 128 °C.
In turn, `CCC(Cc1c(C)cc(C(C)(C)C)c(O)c1C)(C(=O)OC1CC(C)(C)NC(C)(C)C1)C(=O)OC1CC(C)(C)NC(C)(C)C1` showed a melting point of 175 °C.
`CCN(CC)CC=CC(=O)Nc1ccc2ncnc(Nc3cccc(Br)c3)c2c1` had a melting point of 196 to 199 °C.
In the case of `CN(Cc1ccccc1)c1cc(C(=O)O)ccc1C(N)C(=O)O` (configuration not stated), the melting point stood at 193 °C.
`COc1cc2c(cc1OC)C(C(S)(C#N)c1ccccc1)=NCC2` (configuration not stated): the melting point was 160 to 161 °C.
For `COc1ccc(Nc2nc3cccc(-c4ccc(CN5CCS(=O)(=O)CC5)cc4)n3n2)cc1`, the melting point is 241 °C.
`CC1(C)COC(=O)C(C(=O)Nc2cccc(C(F)(F)F)c2)C1=O` (configuration not stated) displayed a melting point above 200 °C.
In turn, `CCCn1cc(-c2c(-c3ccccc3)nn3ccncc23)ccc1=O` yielded a melting point of 165 to 166 °C.
Take `Cc1ccc(NC(=O)N2CCN(CCc3ccc(-c4cccc(N)n4)cc3)CC2)cc1`: the melting point lay in the range of 160 to 162 °C.
To `CC(=O)Nn1c(=O)c(=O)[nH]c2ccccc21` belongs 211 to 213 °C; to `Cc1[nH]c(=O)c(C#N)cc1-c1ccncc1`, above 300 °C.
`CCc1cc(OCc2ccc(-c3ccccc3-c3nnn(C(c4ccccc4)(c4ccccc4)c4ccccc4)n3)cc2)c2c(n1)CCCN2C(=O)C(F)(F)F` gave a melting point of 93 to 95 °C.
Molecule `O=C(O)COc1ccc(C(=O)c2cccc3ccccc23)c(Cl)c1Cl` registered a melting point of 173 to 175 °C.
Take `CCN1C(=O)C(C)(C)C(=O)N(C)c2cc(CN(CCn3ccc4oc(C)cc4c3=O)Cc3ccnnc3)ccc21`: the melting point lay within 137 to 141 °C.
The molecule `COc1cc(C(=O)N(C(C)C)C2CCCCC2)ccc1Cn1c(-c2ccccc2Cl)nc2ncccc21` returned a melting point of 121 to 123 °C.
With `CCc1noc(C)c1-c1[nH]c2ccccc2c1C(=O)C(=O)N(C)C`, the melting point lay within 212 to 215 °C.
`N#Cc1nn(-c2c(Cl)cc(C(F)(F)F)cc2Cl)cc1-c1cc(Br)no1` showed a melting point of 145 °C.
The molecule `CC1(c2ccccc2)OC(=O)C(=O)CC1=O` (configuration not stated) registered a melting point of 142 to 144 °C.
The value for `CCCN(CCC)C1Cc2cc3c(cc2C1)C(=O)N(Cc1cccnc1)C3=O` was 141 to 146 °C; that for `Cc1ccc(C2C(=O)Oc3c2cc(C(C)(C)C)cc3C(C)(C)C)cc1` (configuration not stated) was 130 to 133 °C.
In the case of `COC(=O)C(Cc1ccc(OCCN(C)c2nc3ccccc3o2)cc1)Sc1ccc(C)cc1` (configuration not stated), the melting point was 88.6 to 90.1 °C.
Consider `O=C(O)CNC(=O)C=C(c1ccc(Cl)cc1)c1ccc(Cl)cc1`, for which the melting point is 166 to 168 °C.
`O=C(O)CCc1cccc(-c2nc(=O)c3ccc(F)cc3s2)n1` had a melting point of 215 to 217 °C.
To `c1cc2c(c3c1CCN3)CCS2` belongs 170 to 172 °C; to `Cc1ccc(NS(=O)(=O)c2ccc(Br)cc2)c(F)c1`, 111 °C; to `c1ccc(-c2ccc3[nH]c4c(ccc5cc[nH]c54)c3c2)cc1`, above 250 °C.
Molecule `CC(=O)Oc1ccc(Cn2ccnc2SC(C)=O)cc1F` gave a melting point of 78 to 80 °C.
For `Cn1ccc(C=C[N+](=O)[O-])c1`, the melting point lay within 90 to 92 °C.
For `CSc1ccc(CSc2cccc(C(=O)Nc3ccc(Cl)cn3)c2)cc1`, the melting point was 159 to 161 °C.
Take `O=c1c2c(CCc3ccccc3)n[nH]c2c2cccnc2n1-c1ccccc1`: the melting point lay in the range of 248 to 250 °C.
Regarding `CN1CCC[C@H](OCc2cc(C(F)(F)F)cc(C(F)(F)F)c2)[C@@H]1c1ccccc1`, the melting point is 40 to 42 °C.
As to `Cc1ccc(C(=O)c2ccc3[nH]c(=O)nc(-c4cccc(Cl)c4)c3c2)cc1`, the melting point turned out to be 181 °C.
For the molecule `COC(C(=O)Nc1cc(Cl)cc(Cl)c1)C(=O)OC(C)(C)C` (configuration not stated), the melting point lay in the range of 130 to 132 °C.
`CC(C)NC1=NS(=O)(=O)c2ccc(CC(=O)O)cc2N1` had a melting point of 262 to 264 °C.
For the molecule `CCc1nn2c(-c3cccnc3)ccnc2c1C#N`, the melting point lay in the range of 170 to 172 °C.
As for `CC(C)N1Cc2cc(S(C)(=O)=O)ccc2N(CCN2CC=C(c3c[nH]c4cc(F)ccc34)CC2)S1(=O)=O`, the melting point was in the range of 118 to 120 °C.
To `OCc1cnoc1-c1ccc(Cl)c(F)c1` belongs 87 to 88 °C.
